Data reported in patent US20220290237A1, “METHOD FOR PREDICTING THE RESPONSE OF ANTIPSYCHOTIC DRUGS” (INSERM (INSTITUT NATIONAL DE LA SANTÉ ET DE LA RECHERCHE …, priority 2019, published 2022).

Test system: total RNA from PBMCs
Experiment: RNA-seq gene expression before and after 4 weeks of amisulpride treatment
Type: in vivo, human
Conditions: 4 weeks amisulpride
Excerpt: The cohort analysed in this study was obtained from the OPTiMiSE clinical trial (http://www.optimisetrial.eu) (29). After providing written informed consent, 491 patients with a first episode psychosis were included and 453 started medication. All patients were diagnosed with schizophrenia, schizophreniform disorder or schizoaffective disorder according to the Diagnostic and Statistical Manual of Mental Disorders, Fourth Edition (DSM-IV) and confirmed on the basis of the Mini International Neuropsychiatric Interview Plus (M.I.N.I. Plus) (30) (table 4). At baseline, patients were medication-naïve or minimally-treated (any antipsychotic medication used for […] 2 weeks in the previous year or for a total of 6 weeks in their lifetime) and were ill for no longer than 2 years. Only subjects involved in the single-treatment arm (phase 1) of the trial were considered for this study (29). All patients were treated for 4 weeks with amisulpride (200-800 mg/day orally). At the end of the 4-week treatment, the blood concentration of antipsychotic used has been determined. This measurement provided a reliable indication of the treatment compliance of individual patients.
A DNase digestion procedure was added after extraction. Total RNA was purified using the RNA Clean & Concentrator™-5 kit following the manufacturer's instructions (Zymo Research Corp., Irvine, USA). RNA quantification was performed on a NanoDrop™ 8000 spectrophotometer, in duplicate. The quality and integrity of the RNA samples were assessed using an Agilent Bioanalyzer 2100 and the RNA6000 Nano Labchip kit (Agilent Technologies). Only samples with an RNA integrity number (RIN) higher than 7 were selected. Three hundred and seventy-six RNA samples fulfilled quality control criteria for RNA-seq analyses, corresponding to two RNA samples (one at inclusion and one after 4 weeks of treatment) for 188 subjects. Forty-eight additional RNAs were available for replication studies, in 24 independent subjects.
All libraries were prepared using the Illumina TruSeq Stranded Total RNA with Ribo-Zero Globin kit (Illumina Inc., San Diego, Calif., U.S.A.), which removes ribosomal RNA and globin mRNA. Libraries were prepared using one microgram of total RNA as initial input and following the standard protocols. After library quality control, 2×100 bp paired-end (PE) sequencing was performed on a HiSeq4000 system (Illumina), pooling a maximum of 6 samples on each lane, in order to reach 40 to 50 million of PE-reads for each sample. The Illumina pipeline was used to generate raw RNA sequencing data (fastq files) for each sample. Sequence quality controls were performed, using FastQC and in-house bioinformatics pipelines, from a sampling of 2×10 million reads in order to assess the levels of read duplicates, adapters, remaining rRNA and the GC content. Reads were trimmed for adapters and low-quality bases (Phred quality score <30) using Trimmomatic software (v.0.32). Reads were then mapped to the Genome Reference Consortium human genome assembly 37 (GRCh37) reference genome (hg19) using Tophat software (v.2.0.13). Read mapping quality was assessed using RNA-SeQC software. Then, gene-level quantification in read counts was performed by HTSeq software (v.0.6.1), using gene annotation from Ensembl v.86. All downstream analyses were conducted using the statistical software R (v.3.2.4) and Bioconductor R packages. Genes with counts-per million (cpm) below 1 in more than two third of the samples were considered unexpressed and removed from the analysis using edgeR package (v.3.12.1). Raw gene counts matrix has been normalized to account for differences in sequencing depth and RNA composition using the “median ratio” method implemented in the DESeq2 package (v.1.16.1). To avoid batch effects as confounding factors, all subjects had their 2 time-points in a same batch. […]

CCN1CCCC1CNC(=O)c1cc(S(=O)(=O)CC)c(N)cc1OC (centres unmarked) [amisulpride, 4-amino-N-((1-ethyl-2-pyrrolidinyl)methyl)-5-(etgylsulfonyl)-2-methoxybenzamide] was tested, and the “FC, fold-change at week 4 relative to the expression level at inclusion: AC073172.1” value (good responders (n = 113)) was 0.72, the “FC, fold-change at week 4 relative to the expression level at inclusion: AC073172.1” value (poor responders (n = 75)) was 0.97 and the “FC, fold-change at week 4 relative to the expression level at inclusion: AC092171.4” value (good responders (n = 113)) was 0.85. For the same molecule, the “FC, fold-change at week 4 relative to the expression level at inclusion: AC092171.4” value (poor responders (n = 75)) was 1.06, the “FC, fold-change at week 4 relative to the expression level at inclusion: AC132872.1” value (good responders (n = 113)) was 0.81 and the “FC, fold-change at week 4 relative to the expression level at inclusion: AC132872.1” value (poor responders (n = 75)) was 1.05. The “FC, fold-change at week 4 relative to the expression level at inclusion: ACSL5” value (good responders (n = 113)) was 1.06, the “FC, fold-change at week 4 relative to the expression level at inclusion: ACSL5” value (poor responders (n = 75)) was 0.99 and the “FC, fold-change at week 4 relative to the expression level at inclusion: AL133351.4” value (good responders (n = 113)) was 0.88. For the same molecule, the “FC, fold-change at week 4 relative to the expression level at inclusion: AL133351.4” value (poor responders (n = 75)) was 1.04, the “FC, fold-change at week 4 relative to the expression level at inclusion: AL391832.3” value (good responders (n = 113)) was 0.88 and the “FC, fold-change at week 4 relative to the expression level at inclusion: AL391832.3” value (poor responders (n = 75)) was 1.00. For the same molecule, the “FC, fold-change at week 4 relative to the expression level at inclusion: ALG1L13P” value (good responders (n = 113)) was 0.89, the “FC, fold-change at week 4 relative to the expression level at inclusion: ALG1L13P” value (poor responders (n = 75)) was 1.02 and the “FC, fold-change at week 4 relative to the expression level at inclusion: ALPL” value (good responders (n = 113)) was 0.79. For the same molecule, the “FC, fold-change at week 4 relative to the expression level at inclusion: ALPL” value (poor responders (n = 75)) was 1.09, the “FC, fold-change at week 4 relative to the expression level at inclusion: AP000640.1” value (good responders (n = 113)) was 0.84 and the “FC, fold-change at week 4 relative to the expression level at inclusion: AP000640.1” value (poor responders (n = 75)) was 1.00. For the same molecule, the “FC, fold-change at week 4 relative to the expression level at inclusion: C15orf54” value (good responders (n = 113)) was 1.18, the “FC, fold-change at week 4 relative to the expression level at inclusion: C15orf54” value (poor responders (n = 75)) was 1.07 and the “FC, fold-change at week 4 relative to the expression level at inclusion: CA4” value (good responders (n = 113)) was 0.76. The “FC, fold-change at week 4 relative to the expression level at inclusion: CA4” value (poor responders (n = 75)) was 1.07, the “FC, fold-change at week 4 relative to the expression level at inclusion: CXCR6” value (good responders (n = 113)) was 1.14 and the “FC, fold-change at week 4 relative to the expression level at inclusion: CXCR6” value (poor responders (n = 75)) was 1.03. The “FC, fold-change at week 4 relative to the expression level at inclusion: CYSLTR2” value (good responders (n = 113)) was 1.13, the “FC, fold-change at week 4 relative to the expression level at inclusion: CYSLTR2” value (poor responders (n = 75)) was 1.01 and the “FC, fold-change at week 4 relative to the expression level at inclusion: DGAT2” value (good responders (n = 113)) was 0.87. The “FC, fold-change at week 4 relative to the expression level at inclusion: DGAT2” value (poor responders (n = 75)) was 1.08, the “FC, fold-change at week 4 relative to the expression level at inclusion: DHRS13” value (good responders (n = 113)) was 0.87 and the “FC, fold-change at week 4 relative to the expression level at inclusion: DHRS13” value (poor responders (n = 75)) was 1.04. The “FC, fold-change at week 4 relative to the expression level at inclusion: FAT1” value (good responders (n = 113)) was 1.27, the “FC, fold-change at week 4 relative to the expression level at inclusion: FAT1” value (poor responders (n = 75)) was 1.20 and the “FC, fold-change at week 4 relative to the expression level at inclusion: FBXL13” value (good responders (n = 113)) was 0.85. The “FC, fold-change at week 4 relative to the expression level at inclusion: FBXL13” value (poor responders (n = 75)) was 0.92 and the “FC, fold-change at week 4 relative to the expression level at inclusion: GALNT14” value (GALNT14, good responders (n = 113)) was 0.78.
